# Assay results as given in PubChem BioAssay (NCI).
#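 1) Cells in 96-well plates. 2) Compound, 48 h, 5 concentrations. 3) Linear interpolation between surrounding doses. 4) Unreached endpoint = highest concentration. TGI marks complete inhibition of growth.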
# Tests used:
# Experiment in all cases: NCI anticancer screen, dose series, 48 h
# [1] = system: 786-0 renal
# [2] = system: A498 renal
# [3] = system: A549 NSCLC
# [4] = system: ACHN renal
# [5] = system: BT-549 breast
# [6] = system: CCRF-CEM leukemia
# [7] = system: COLO 205 colon
# [8] = system: DU-145 prostate
# [9] = system: EKVX NSCLC
# [10] = system: HCC-2998 colon
# [11] = system: HCT-116 colon
# [12] = system: HCT-15 colon
# [13] = system: HL-60(TB) leukemia
# [14] = system: HOP-62 NSCLC
# [15] = system: HOP-92 NSCLC
# [16] = system: HS 578T breast
# [17] = system: HT29 colon
# [18] = system: IGROV1 ovarian
# [19] = system: K-562 leukemia
# [20] = system: KM12 colon
# [21] = system: M14 melanoma
# [22] = system: MALME-3M melanoma
# [23] = system: MCF7 breast
# [24] = system: MDA-MB-231 breast
# [25] = system: MDA-MB-435
# [26] = system: MDA-N
# [27] = system: MOLT-4 leukemia
# [28] = system: NCI-H226 lung
# [29] = system: NCI-H23 lung
# [30] = system: NCI-H460 lung
# [31] = system: NCI-H522 lung
# [32] = system: NCI/ADR-RES ovarian
# [33] = system: OVCAR-3 ovarian
# [34] = system: OVCAR-4 ovarian
# [35] = system: OVCAR-5 ovarian
# [36] = system: OVCAR-8 ovarian
# [37] = system: PC-3 prostate
# [38] = system: RPMI-8226 leukemia
# [39] = system: RXF 393 renal
# [40] = system: SF-268 CNS
# [41] = system: SF-295 CNS
# [42] = system: SF-539 CNS
# [43] = system: SK-MEL-2 melanoma
# [44] = system: SK-MEL-28 melanoma
# [45] = system: SK-MEL-5 melanoma
# [46] = system: SK-OV-3 ovarian
# [47] = system: SN12C renal
# [48] = system: SNB-19 CNS
# [49] = system: SNB-75 CNS
# [50] = system: SW-620 colon
# [51] = system: T-47D breast
# [52] = system: TK-10 renal
# [53] = system: U251 CNS
# [54] = system: UACC-257 melanoma
# [55] = system: UACC-62 melanoma
# [56] = system: UO-31 renal
# [57] = system: CAKI-1 renal
# [58] = system: LOX IMVI melanoma
smiles,measurement,setting,value
O=C1C(Cl)=C(Cl)C(=O)C2=C1C1c3ccccc3C2c2ccccc21,TGI,[1],47.4 µM
same,TGI,[2],> 100 µM
same,TGI,[3],> 100 µM
same,TGI,[4],> 100 µM
same,TGI,[5],> 100 µM
same,TGI,[6],> 100 µM
same,TGI,[7],61.4 µM
same,TGI,[8],> 100 µM
same,TGI,[9],> 100 µM
same,TGI,[10],> 100 µM
same,TGI,[11],> 100 µM
same,TGI,[12],> 100 µM
same,TGI,[13],52.5 µM
same,TGI,[14],59.4 µM
same,TGI,[15],43.5 µM
same,TGI,[16],> 100 µM
same,TGI,[17],> 100 µM
same,TGI,[18],> 100 µM
same,TGI,[19],> 100 µM
same,TGI,[20],> 100 µM
same,TGI,[21],> 100 µM
same,TGI,[22],57.7 µM
same,TGI,[23],> 100 µM
same,TGI,[24],65.2 µM
same,TGI,[25],> 100 µM
same,TGI,[26],> 100 µM
same,TGI,[27],> 100 µM
same,TGI,[28],> 100 µM
same,TGI,[29],> 100 µM
same,TGI,[30],99.2 µM
same,TGI,[31],33 µM
same,TGI,[32],> 100 µM
same,TGI,[33],> 100 µM
same,TGI,[34],> 100 µM
same,TGI,[35],> 100 µM
same,TGI,[36],> 100 µM
same,TGI,[37],> 100 µM
same,TGI,[38],53.5 µM
same,TGI,[39],75.2 µM
same,TGI,[40],> 100 µM
same,TGI,[41],> 100 µM
same,TGI,[42],65.9 µM
same,TGI,[43],> 100 µM
same,TGI,[44],> 100 µM
same,TGI,[45],> 100 µM
same,TGI,[46],> 100 µM
same,TGI,[47],> 100 µM
same,TGI,[48],> 100 µM
same,TGI,[49],> 100 µM
same,TGI,[50],59.5 µM
same,TGI,[51],60.1 µM
same,TGI,[52],> 100 µM
same,TGI,[53],45.4 µM
same,TGI,[54],> 100 µM
same,TGI,[55],79.9 µM
same,TGI,[56],> 100 µM
CC(C)=CCC/C(C)=C/CO,TGI,[1],> 100 µM
same,TGI,[2],> 100 µM
same,TGI,[3],> 100 µM
same,TGI,[4],> 100 µM
same,TGI,[5],> 100 µM
same,TGI,[57],> 100 µM
same,TGI,[6],> 100 µM
same,TGI,[7],> 100 µM
same,TGI,[8],> 100 µM
same,TGI,[9],> 100 µM
same,TGI,[10],> 100 µM
same,TGI,[11],> 100 µM
same,TGI,[12],> 100 µM
same,TGI,[13],> 100 µM
same,TGI,[14],> 100 µM
same,TGI,[16],> 100 µM
same,TGI,[17],> 100 µM
same,TGI,[18],> 100 µM
same,TGI,[19],> 100 µM
same,TGI,[20],> 100 µM
same,TGI,[58],> 100 µM
same,TGI,[21],> 100 µM
same,TGI,[22],> 100 µM
same,TGI,[23],> 100 µM
same,TGI,[24],> 100 µM
same,TGI,[25],> 100 µM
same,TGI,[26],> 100 µM
same,TGI,[27],> 100 µM
same,TGI,[28],> 100 µM
same,TGI,[29],> 100 µM
same,TGI,[30],> 100 µM
same,TGI,[31],> 100 µM
same,TGI,[32],> 100 µM
same,TGI,[33],> 100 µM
same,TGI,[34],> 100 µM
same,TGI,[35],> 100 µM
same,TGI,[36],> 100 µM
same,TGI,[37],> 100 µM
same,TGI,[38],> 100 µM
same,TGI,[40],> 100 µM
same,TGI,[41],> 100 µM
same,TGI,[42],> 100 µM
same,TGI,[43],> 100 µM
same,TGI,[44],> 100 µM
same,TGI,[45],> 100 µM
same,TGI,[46],> 100 µM
same,TGI,[47],> 100 µM
same,TGI,[48],> 100 µM
same,TGI,[50],> 100 µM
same,TGI,[51],> 100 µM
same,TGI,[52],> 100 µM
same,TGI,[53],> 100 µM
same,TGI,[54],> 100 µM
same,TGI,[55],> 100 µM
same,TGI,[56],> 100 µM
O=C1Nc2cc(Cl)ccc2C(=O)N2CCC[C@@H]12,TGI,[1],> 100 µM
same,TGI,[2],> 100 µM
same,TGI,[3],> 100 µM
same,TGI,[4],> 100 µM
same,TGI,[5],> 100 µM
same,TGI,[57],> 100 µM
same,TGI,[6],> 100 µM
same,TGI,[7],> 100 µM
same,TGI,[8],> 100 µM
same,TGI,[9],> 100 µM
same,TGI,[10],> 100 µM
same,TGI,[11],> 100 µM
same,TGI,[12],> 100 µM
same,TGI,[13],> 100 µM
same,TGI,[14],> 100 µM
same,TGI,[15],> 100 µM
same,TGI,[16],> 100 µM
same,TGI,[17],> 100 µM
same,TGI,[18],> 100 µM
same,TGI,[19],> 100 µM
same,TGI,[20],> 100 µM
same,TGI,[58],> 100 µM
same,TGI,[21],> 100 µM
same,TGI,[22],> 100 µM
same,TGI,[23],> 100 µM
same,TGI,[24],> 100 µM
same,TGI,[25],> 100 µM
same,TGI,[26],> 100 µM
same,TGI,[28],98.2 µM
same,TGI,[29],> 100 µM
same,TGI,[30],> 100 µM
same,TGI,[31],> 100 µM
same,TGI,[32],> 100 µM
same,TGI,[34],> 100 µM
same,TGI,[35],> 100 µM
same,TGI,[36],> 100 µM
same,TGI,[37],> 100 µM
same,TGI,[38],> 100 µM
same,TGI,[39],> 100 µM
same,TGI,[40],> 100 µM
same,TGI,[41],> 100 µM
same,TGI,[43],> 100 µM
same,TGI,[44],> 100 µM
same,TGI,[45],> 100 µM
same,TGI,[46],> 100 µM
same,TGI,[47],> 100 µM
same,TGI,[48],> 100 µM
same,TGI,[49],> 100 µM
same,TGI,[50],> 100 µM
same,TGI,[51],> 100 µM
same,TGI,[52],> 100 µM
same,TGI,[53],> 100 µM
same,TGI,[54],> 100 µM
same,TGI,[55],> 100 µM
same,TGI,[56],> 100 µM
